Reference: ChEMBL document CHEMBL1201862, “PubChem BioAssay data set” (2004)
Activity calls are given as the source filed them.

Columns and labels:
[1] = molecular target: Cyclin-dependent kinase 5/CDK5 activator 1 (Homo sapiens, UniProt Q00535); test: blockade of human CDK5 activity – biochemical, cherry-picked samples, set 2, dose response (AID 504545)
Beta-galactosidase = Beta-galactosidase (Escherichia coli, UniProt Q8VNN2); type: functional
[2] = molecular target: T1, Kappa-type opioid receptor (Homo sapiens, UniProt P41145); type: functional
T1 sequence (P41145 whole entry): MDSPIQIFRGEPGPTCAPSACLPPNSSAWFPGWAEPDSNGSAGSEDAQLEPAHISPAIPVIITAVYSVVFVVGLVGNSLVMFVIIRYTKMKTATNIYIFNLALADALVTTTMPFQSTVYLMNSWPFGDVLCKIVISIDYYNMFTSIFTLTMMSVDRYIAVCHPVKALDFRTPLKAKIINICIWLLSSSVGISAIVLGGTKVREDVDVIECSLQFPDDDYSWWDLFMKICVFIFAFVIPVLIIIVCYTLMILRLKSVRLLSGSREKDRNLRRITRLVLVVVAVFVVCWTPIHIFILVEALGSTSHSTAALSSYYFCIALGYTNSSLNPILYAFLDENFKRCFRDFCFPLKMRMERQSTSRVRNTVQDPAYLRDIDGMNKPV

[3] = molecular target: T1, Kappa-type opioid receptor; type: functional; remark: listed apart in the source
[4] = molecular target: Neurotensin receptor type 1 (Homo sapiens, UniProt P30989); type: functional;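 further: Image-based confirmatory dose-response assay measuring agonist activity at NTR1; NTR1-expressing U2OS osteosarcoma cells imaged for beta-arrestin GFP spot formation; agonist potency where compounds increase beta-arrestin recruitment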
Chain of Neurotensin receptor type 1 (P30989 whole entry): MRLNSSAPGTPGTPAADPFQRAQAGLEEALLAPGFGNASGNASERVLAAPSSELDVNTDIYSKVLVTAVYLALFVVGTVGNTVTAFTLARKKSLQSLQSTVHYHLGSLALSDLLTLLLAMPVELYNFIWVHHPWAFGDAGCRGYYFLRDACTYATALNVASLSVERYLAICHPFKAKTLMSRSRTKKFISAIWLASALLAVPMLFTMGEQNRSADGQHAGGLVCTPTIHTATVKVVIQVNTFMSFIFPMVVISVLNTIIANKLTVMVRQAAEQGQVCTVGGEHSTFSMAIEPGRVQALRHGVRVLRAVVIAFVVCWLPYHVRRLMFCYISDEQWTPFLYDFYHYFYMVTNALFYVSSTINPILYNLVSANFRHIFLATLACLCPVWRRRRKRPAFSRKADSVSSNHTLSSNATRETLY

[5] = Luminescence Cell-Based Dose Retest to Confirm Inhibitors of Cancer Stem Cells. [Related pubchem assays (depositor defined):AID2717, AID2721]; type: functional; settings: Homo sapiens
[6] = Luminescence Cell-Based Dose Response HTS to Identify Inhibitors of 5'UTR Stem-Loop Driven Prion Protein mRNA Translation in H4 Neuroglioblastoma Cells. [Related pubchem assays: 1827 (Project Summary), 1813 (Primary HTS)]; type: functional
[7] = HEK-293T cell viability reduction – luminescence, B-cell screen hits, cytotoxicity control for BCR NF-kB inhibitor project, dose response (AID 489021); type: functional, cell-based;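 further: HEK-293T cells carrying an NF-kB luciferase reporter; cells exposed to compound for about 14 hours before viability readout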
[8] = luciferase reporter signal suppression in cells – H4 neuroglioma cells, luminescence, dose response (AID 1990); type: functional, cell-based
[9] = Luminescence Cell-Based Dose Confirmation HTS to Identify Activators of 5'UTR Stem-Loop Driven Alpha-Synuclein mRNA Translation in H4 Neuroglioblastoma Cells. [Related pubchem assays: 1829 (Project Summary), 1814 (Primary HTS)]; type: functional
[10] = Luminescence Cell-Based Dose Retest to Confirm Activators of 5'UTR Stem-Loop Driven Alpha-Synuclein mRNA Translation in H4 Neuroglioblastoma Cells. [Related pubchem assays (depositor defined):AID1813, AID1829]; type: functional
H4 = test: Luminescence Cell-Based Dose Response HTS to Identify Activators of 5'UTR Stem-Loop Driven Prion Protein mRNA Translation in H4 Neuroglioblastoma Cells. [Related pubchem assays: 1829 (Project Summary), 1814 (Primary HTS)]; type: functional; settings: Homo sapiens
[11] = Luminescence Cell-Based Dose Response HTS to Identify Activators of 5'UTR Stem-Loop Driven Prion Protein mRNA Translation in H4-C Neuroglioblastoma Cells. [Related pubchem assays: 1829 (Project Summary), 1814 (Primary HTS)]; type: functional
[12] = Luminescence Cell-Based Dose Response HTS to Identify Activators of Luciferase Translation or Activity in H4 […] Cells. [Related pubchem assays: 1829 (Project Summary), 1814 (Primary HTS)]; type: functional
[13] = Luminescence Cell-Based Dose Response HTS to Identify Activators of Luciferase Translation or Activity in H4-C Neuroglioblastoma Cells. [Related pubchem assays: 1829 (Project Summary), 1814 (Primary HTS)]; type: functional
[14] = molecular target: T2, Heat shock factor protein 1 (Mus musculus, UniProt P38532); test: enhancement of HSF1-driven luciferase signal – cell-based, NIH3T3, luminescence, dose retest, confirmation (AID 435004); type: functional;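 further: stress induced by proteasome inhibitor MG132 added 30 min after compound; luciferase reporter driven by HSF1 response element in NIH3T3 cells; actives raise luminescence as potentiators of the MG132 stress response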
T2 sequence (P38532 whole entry): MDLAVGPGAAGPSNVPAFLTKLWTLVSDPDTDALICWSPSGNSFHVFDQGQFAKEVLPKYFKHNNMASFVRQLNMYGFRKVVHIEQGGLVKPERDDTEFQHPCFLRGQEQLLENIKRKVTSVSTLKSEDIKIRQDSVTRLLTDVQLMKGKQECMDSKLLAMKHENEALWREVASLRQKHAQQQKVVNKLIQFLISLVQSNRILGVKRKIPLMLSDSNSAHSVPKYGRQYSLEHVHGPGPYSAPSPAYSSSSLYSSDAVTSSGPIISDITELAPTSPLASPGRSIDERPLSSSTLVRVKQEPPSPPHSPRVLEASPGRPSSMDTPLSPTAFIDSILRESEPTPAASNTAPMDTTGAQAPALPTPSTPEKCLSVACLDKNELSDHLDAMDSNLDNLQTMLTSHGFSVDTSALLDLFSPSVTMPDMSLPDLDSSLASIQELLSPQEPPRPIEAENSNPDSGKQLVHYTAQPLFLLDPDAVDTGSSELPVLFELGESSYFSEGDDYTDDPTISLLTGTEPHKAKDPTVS

[15] = THP-1 cell cytotoxicity, dose response, cytotoxicity control for non-replicating M. tuberculosis project (AID 489025); type: functional
cells = type: functional
[16] = molecular target: Acyl-homoserine lactone acylase PvdQ (Pseudomonas aeruginosa (strain LESB58), UniProt Q9I194); test: PvdQ acylase enzyme activity blockers – biochemical, fluorescence, plate reader and imaging, cherry-picks, dose response (AID 493231)
Chain of Acyl-homoserine lactone acylase PvdQ (Q9I194 24-193 limits assumed): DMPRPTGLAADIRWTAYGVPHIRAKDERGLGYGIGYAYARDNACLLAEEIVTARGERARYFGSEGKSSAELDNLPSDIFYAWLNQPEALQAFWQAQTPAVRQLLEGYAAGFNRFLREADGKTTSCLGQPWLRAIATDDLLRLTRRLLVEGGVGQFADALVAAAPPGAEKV
Chain of Acyl-homoserine lactone acylase PvdQ (Q9I194 217-762 limits assumed): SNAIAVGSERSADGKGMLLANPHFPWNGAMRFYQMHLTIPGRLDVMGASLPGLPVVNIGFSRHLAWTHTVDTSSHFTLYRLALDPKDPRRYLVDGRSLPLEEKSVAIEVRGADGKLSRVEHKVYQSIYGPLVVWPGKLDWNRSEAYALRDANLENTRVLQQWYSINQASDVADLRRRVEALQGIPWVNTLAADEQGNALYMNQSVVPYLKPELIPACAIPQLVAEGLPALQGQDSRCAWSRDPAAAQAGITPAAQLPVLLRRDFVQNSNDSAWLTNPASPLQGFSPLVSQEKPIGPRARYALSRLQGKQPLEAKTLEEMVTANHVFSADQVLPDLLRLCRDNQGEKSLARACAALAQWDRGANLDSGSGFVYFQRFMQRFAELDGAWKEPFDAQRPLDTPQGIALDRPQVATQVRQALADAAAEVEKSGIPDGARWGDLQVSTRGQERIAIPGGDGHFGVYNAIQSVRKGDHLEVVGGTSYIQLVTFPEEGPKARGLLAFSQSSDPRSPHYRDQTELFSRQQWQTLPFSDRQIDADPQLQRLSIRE

[17] = molecular target: T3, Polyadenylate-binding protein 1 (Homo sapiens, UniProt P11940); test: MLLE binding blockers, Cy5 peptide tracer – biochemical, fluorescence polarization, Cy5-PAM2 peptide, secondary, miRNA deadenylation inhibitor project, dose response (AID 602260); type: functional; settings: read-out: IC50_Mean
T3 sequence (P11940 whole entry, the tested form may be a part): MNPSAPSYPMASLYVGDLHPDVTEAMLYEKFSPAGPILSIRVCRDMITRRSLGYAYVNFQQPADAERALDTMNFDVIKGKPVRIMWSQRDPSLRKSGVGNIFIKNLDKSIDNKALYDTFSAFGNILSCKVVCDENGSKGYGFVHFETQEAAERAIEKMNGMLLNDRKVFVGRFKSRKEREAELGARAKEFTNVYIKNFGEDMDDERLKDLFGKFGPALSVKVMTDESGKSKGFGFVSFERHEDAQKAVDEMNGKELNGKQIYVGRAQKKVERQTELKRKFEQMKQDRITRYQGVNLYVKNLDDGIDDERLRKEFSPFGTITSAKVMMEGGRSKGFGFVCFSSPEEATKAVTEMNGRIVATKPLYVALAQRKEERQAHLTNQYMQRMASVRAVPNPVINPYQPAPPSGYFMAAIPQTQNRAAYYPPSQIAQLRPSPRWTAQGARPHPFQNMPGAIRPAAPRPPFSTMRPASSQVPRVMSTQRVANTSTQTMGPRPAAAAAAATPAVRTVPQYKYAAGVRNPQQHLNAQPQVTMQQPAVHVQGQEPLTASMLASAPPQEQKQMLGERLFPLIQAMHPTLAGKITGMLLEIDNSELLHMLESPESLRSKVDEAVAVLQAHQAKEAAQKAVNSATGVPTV

[18] = molecular target: T3, Polyadenylate-binding protein 1; test: MLLE domain peptide-binding blockers, IC50 – biochemical, fluorescence polarization, FITC-PAM2 peptide, dose response (AID 602259); type: functional; settings: read-out: IC50_Mean
Aspartyl aminopeptidase = molecular target: T4, Aspartyl aminopeptidase (Plasmodium falciparum 3D7, UniProt Q8I2J3)
T4 sequence (Q8I2J3 whole entry): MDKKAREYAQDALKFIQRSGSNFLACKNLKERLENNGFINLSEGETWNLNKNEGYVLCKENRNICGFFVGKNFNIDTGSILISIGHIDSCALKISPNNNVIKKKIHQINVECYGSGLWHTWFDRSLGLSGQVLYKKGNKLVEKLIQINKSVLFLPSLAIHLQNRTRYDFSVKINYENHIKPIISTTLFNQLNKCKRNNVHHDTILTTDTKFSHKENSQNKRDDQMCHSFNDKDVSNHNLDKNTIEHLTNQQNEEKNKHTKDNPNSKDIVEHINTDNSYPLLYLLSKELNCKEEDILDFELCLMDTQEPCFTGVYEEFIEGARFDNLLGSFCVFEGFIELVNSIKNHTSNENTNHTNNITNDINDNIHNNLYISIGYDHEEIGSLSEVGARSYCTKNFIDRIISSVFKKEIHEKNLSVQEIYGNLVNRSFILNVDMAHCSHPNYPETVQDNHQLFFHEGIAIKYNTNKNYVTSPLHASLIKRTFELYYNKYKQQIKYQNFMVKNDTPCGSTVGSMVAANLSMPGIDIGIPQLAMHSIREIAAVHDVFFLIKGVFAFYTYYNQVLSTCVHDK

Procathepsin L = Procathepsin L (Homo sapiens, UniProt P07711)
Chain of Procathepsin L (P07711 whole entry): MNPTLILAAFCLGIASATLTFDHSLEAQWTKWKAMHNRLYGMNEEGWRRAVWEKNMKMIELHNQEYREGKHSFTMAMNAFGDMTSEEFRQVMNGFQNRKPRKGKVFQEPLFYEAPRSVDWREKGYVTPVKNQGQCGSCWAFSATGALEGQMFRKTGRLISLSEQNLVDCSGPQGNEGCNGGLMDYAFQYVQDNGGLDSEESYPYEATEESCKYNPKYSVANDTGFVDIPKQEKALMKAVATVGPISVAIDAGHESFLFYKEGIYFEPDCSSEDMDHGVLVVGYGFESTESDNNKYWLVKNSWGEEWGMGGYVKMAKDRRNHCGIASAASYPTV

Cytochrome P450 2C9 = Cytochrome P450 2C9 (Homo sapiens, UniProt P11712); settings: Potency
Chain of Cytochrome P450 2C9 (P11712 whole entry): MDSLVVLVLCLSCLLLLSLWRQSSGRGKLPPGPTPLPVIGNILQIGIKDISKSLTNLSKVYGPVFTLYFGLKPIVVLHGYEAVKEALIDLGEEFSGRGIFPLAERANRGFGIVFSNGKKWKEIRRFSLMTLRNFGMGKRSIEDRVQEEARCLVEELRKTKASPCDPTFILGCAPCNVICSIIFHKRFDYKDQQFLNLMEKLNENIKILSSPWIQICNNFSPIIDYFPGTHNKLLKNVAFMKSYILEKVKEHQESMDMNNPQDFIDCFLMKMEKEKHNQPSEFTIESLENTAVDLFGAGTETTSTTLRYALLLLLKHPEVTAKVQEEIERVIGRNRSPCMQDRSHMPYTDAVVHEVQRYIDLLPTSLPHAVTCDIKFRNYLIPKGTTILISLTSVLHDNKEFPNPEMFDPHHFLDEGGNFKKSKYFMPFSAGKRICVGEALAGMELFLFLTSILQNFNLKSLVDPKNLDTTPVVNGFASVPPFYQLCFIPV

Cytochrome P450 2D6 = Cytochrome P450 2D6 (Homo sapiens, UniProt P10635); test: qHTS Assay for Inhibitors and Substrates of Cytochrome P450 2D6. [Related pubchem assays: 410 ]; type: ADME; settings: read-out: Potency
[19] = molecular target: T5, Microphthalmia-associated transcription factor (Homo sapiens, UniProt O75030); test: reducers of TRPM1 reporter luminescence, concentration series – cell-based, SK-MEL-5, cherry-picked, set 3, MITF inhibitor project, dose response (AID 493073); type: functional;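 further: SK-MEL-5 melanoma cells with luciferase driven by the MITF target TRPM1 promoter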
T5 sequence (O75030 whole entry): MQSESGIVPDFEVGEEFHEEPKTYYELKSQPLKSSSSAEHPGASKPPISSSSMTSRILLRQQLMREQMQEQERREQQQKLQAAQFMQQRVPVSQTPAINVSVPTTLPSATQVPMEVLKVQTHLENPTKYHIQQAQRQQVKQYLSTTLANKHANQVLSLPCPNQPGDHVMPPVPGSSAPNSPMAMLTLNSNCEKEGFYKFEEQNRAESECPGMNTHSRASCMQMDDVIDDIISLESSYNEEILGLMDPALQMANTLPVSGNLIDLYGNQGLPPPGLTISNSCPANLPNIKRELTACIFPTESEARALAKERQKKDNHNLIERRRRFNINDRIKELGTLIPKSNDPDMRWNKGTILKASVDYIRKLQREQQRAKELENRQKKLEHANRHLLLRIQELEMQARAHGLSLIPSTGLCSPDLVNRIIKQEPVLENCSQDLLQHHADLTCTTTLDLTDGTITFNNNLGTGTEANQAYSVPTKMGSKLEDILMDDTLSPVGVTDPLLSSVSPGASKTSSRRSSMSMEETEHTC

[20] = microbe, parasite or virus in culture; type: functional; settings: Mycobacterium tuberculosis
HeLa = test: viability loss in HeLa cells – cell-based, 24 h, cherry-picked samples, cytotoxicity control, dose response (AID 504726); type: functional; settings: Homo sapiens;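 further: potency for cytotoxicity as loss of luminescence signal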
Caspase-6 = molecular target: T6, Caspase-6 (Homo sapiens, UniProt P55212); test: inhibition of CASP6 peptide cleavage – biochemical, VEID-R110 fluorescence, cherry-pick, dose response (AID 720632)
T6 sequence (P55212 whole entry): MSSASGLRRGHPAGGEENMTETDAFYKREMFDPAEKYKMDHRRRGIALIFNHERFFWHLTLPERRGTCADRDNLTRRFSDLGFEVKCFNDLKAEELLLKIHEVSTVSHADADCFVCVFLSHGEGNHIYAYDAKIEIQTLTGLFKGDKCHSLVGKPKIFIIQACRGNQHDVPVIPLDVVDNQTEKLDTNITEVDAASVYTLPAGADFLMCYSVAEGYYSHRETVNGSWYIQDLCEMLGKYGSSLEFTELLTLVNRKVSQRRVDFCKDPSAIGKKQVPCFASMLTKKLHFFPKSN

[21] = molecular target: T3, Polyadenylate-binding protein 1; test: PABP inhibition in translation initiation, SAR follow-up (AID 435018); type: functional
[22] = molecular target: Eukaryotic translation initiation factor 4H (Homo sapiens, UniProt Q15056); test: inhibitors of translation initiation factor eIF4H – SAR follow-up (AID 435011); type: functional
[23] = molecular target: T7, Rac GTPase-activating protein 1 (Homo sapiens, UniProt Q9H0H5); test: blockers of MgcRacGAP-driven Rac1 GTP hydrolysis – biochemical, ADP Hunter fluorescence, primary and confirmatory, confirmation (AID 624330); type: functional
T7 sequence (Q9H0H5 whole entry): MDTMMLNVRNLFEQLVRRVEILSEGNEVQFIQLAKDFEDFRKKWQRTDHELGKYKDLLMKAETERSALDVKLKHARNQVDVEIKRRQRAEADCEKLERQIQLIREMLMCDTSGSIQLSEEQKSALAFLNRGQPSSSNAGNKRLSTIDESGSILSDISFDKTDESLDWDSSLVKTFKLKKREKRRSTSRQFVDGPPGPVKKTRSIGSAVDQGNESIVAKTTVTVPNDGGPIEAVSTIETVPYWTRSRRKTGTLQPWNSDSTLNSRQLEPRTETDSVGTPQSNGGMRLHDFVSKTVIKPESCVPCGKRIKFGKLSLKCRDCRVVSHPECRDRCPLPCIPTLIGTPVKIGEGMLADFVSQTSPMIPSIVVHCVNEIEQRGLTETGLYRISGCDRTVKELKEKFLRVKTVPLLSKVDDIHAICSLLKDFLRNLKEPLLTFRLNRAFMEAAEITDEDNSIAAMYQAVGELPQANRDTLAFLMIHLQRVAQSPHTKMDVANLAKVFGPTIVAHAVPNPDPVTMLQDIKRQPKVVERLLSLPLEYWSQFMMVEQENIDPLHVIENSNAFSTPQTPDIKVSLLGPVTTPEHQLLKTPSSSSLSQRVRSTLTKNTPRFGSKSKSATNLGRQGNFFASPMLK

Chain of Cyclin-dependent kinase 5/CDK5 activator 1 (Q00535 whole entry): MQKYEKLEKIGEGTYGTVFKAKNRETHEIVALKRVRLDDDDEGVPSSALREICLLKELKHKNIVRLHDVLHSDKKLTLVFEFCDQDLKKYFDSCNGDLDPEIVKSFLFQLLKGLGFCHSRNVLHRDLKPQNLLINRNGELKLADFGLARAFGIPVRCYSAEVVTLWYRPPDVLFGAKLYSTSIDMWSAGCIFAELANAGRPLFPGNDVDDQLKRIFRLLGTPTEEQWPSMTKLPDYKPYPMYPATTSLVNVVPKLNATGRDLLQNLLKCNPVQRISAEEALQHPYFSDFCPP
Chain of Cyclin-dependent kinase 5/CDK5 activator 1 (Q15078 whole entry, further chain): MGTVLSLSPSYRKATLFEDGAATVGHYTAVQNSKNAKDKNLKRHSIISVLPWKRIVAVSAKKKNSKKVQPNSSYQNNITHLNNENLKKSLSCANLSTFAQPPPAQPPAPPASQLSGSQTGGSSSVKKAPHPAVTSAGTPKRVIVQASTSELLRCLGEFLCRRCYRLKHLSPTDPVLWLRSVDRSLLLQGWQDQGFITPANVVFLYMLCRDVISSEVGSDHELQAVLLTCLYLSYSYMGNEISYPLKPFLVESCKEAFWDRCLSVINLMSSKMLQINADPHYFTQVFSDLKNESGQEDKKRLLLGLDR
Chain of Beta-galactosidase (Q8VNN2 whole entry): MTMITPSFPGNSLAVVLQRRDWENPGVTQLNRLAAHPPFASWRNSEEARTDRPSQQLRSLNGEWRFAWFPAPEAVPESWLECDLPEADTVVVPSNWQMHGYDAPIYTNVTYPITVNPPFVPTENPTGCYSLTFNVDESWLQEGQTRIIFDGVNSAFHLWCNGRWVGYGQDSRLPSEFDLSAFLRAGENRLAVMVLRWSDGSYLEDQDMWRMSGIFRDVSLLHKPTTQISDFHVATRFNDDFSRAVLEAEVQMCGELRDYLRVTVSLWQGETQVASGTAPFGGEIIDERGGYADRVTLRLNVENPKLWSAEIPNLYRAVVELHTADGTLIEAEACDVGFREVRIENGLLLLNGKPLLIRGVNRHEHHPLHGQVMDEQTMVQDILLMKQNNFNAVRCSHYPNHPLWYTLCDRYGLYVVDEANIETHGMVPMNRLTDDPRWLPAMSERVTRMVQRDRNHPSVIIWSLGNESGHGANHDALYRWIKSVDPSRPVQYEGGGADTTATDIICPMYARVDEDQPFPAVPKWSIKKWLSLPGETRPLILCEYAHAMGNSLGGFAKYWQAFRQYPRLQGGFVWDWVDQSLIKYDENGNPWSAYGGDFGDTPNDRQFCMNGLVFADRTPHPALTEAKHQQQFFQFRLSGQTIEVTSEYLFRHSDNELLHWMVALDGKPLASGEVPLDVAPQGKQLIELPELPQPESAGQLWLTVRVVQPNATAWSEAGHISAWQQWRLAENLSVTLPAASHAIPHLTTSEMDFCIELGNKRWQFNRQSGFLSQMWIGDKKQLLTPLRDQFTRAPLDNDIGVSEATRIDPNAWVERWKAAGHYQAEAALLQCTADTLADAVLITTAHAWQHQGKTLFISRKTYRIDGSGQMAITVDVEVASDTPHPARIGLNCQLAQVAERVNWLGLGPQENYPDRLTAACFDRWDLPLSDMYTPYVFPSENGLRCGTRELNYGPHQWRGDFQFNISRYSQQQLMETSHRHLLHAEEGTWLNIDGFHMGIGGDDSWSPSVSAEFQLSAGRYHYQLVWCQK

For Nc1nc(Nc2ccccc2)nc(NCCO)c1[N+](=O)[O-], the AC50 [1] was 17.5 µM (active).

For COc1ccc(C)c(-n2c(=O)n(Cc3ccccc3)c(=O)c3[nH]cnc32)c1, the EC50 (Beta-galactosidase) was 9.23 µM (active), the IC50 [2] was greater than 32 µM and the IC50 [3] was 6.84 µM (active).

For O=C(Oc1ccc(Br)cc1C(=O)/C=C/c1ccccc1F)c1ccco1, the EC50 [4] was 15.9 µM (active) and the AC50 [5] was 5.03 µM (active).

For Cc1nc2cc(-c3ccccc3)nn2c(C)c1CCC(=O)NCc1ccco1, the EC50 [6] was 9.65 µM (active), the IC50 [7] was > 80 µM (inactive) and the EC50 [8] was 17.6 µM (active).

In the case of Cc1csc2nc(CCNS(=O)(=O)c3cccs3)cn12, the EC50 [9] is reported as 2.18 µM (active), the EC50 [10] is reported as 1.85 µM (active) and the EC50 (H4) is reported as 96.8 µM (active). For the same compound, the EC50 [11] was 13.1 µM (active), the EC50 [12] was 45.9 µM (active) and the EC50 [13] was 3.07 µM (active). The EC50 [14] was 254 µM (active).

For Cc1ccc(O)c(C(=O)c2cc(C#N)c(=O)n(-c3nccs3)c2)c1, the CC50 [15] was 29.6 µM (active).

In the case of CCOCC(=O)Nc1nc2ccc(C)cc2s1, the IC50 (cells) is reported as 34.5 µM (active), the AC50 [16] is reported as 24 µM (active) and the IC50 [17] is reported as > 66 µM (inactive). For the same compound, the IC50 [18] was > 66 µM (inactive).

For O=C(NCCc1ccc(O)c(O)c1)C1COc2ccccc2O1 (stereo not drawn), the IC50 (Aspartyl aminopeptidase) was 2.11 µM (active), the EC50 [14] was 28.5 µM (active) and the IC50 (Procathepsin L) was > 59.6 µM (not active).

In the case of CCOC(=O)OCC1OC(C#Cc2ccc(C(C)(C)C)cc2)C=CC1OC(=O)OCC (stereo not drawn), the AC50 (Cytochrome P450 2C9) is reported as 0.0025 µM (inconclusive).

For CC(C)C[C@@H](CC(=O)N[C@H](CC(=O)N[C@@H]1CCNC[C@H]1C(=O)N[C@H](CC(=O)N[C@@H](CCC(=O)O)CC(=O)O)CC(C)C)C(C)C)NC(=O)[C@@H]1CCCC[C@H]1N, the AC50 (Cytochrome P450 2C9) was 39.8 µM (inconclusive) and the AC50 (Cytochrome P450 2D6) was 39.8 µM (inconclusive).

For O=[N+]([O-])c1ccc(Sc2cc[n+]([O-])c3ccccc23)c([N+](=O)[O-])c1, the AC50 [19] was 5.92 µM (active), the IC50 [7] was > 80 µM (inactive) and the CC50 [20] was 12.1 µM (active).

For O=C(COC(=O)c1ccc([N+](=O)[O-])o1)NCCCc1ccccc1, the AC50 (HeLa) was > 350 µM (inactive) and the AC50 (Caspase-6) was 35.2 µM (active).

In the case of COc1cc2ccccc2ccc1=NO, the AC50 [1] is reported as 34.7 µM (active).

For COC(=O)c1[nH]c2ccccc2c1Sc1ccccc1, the IC50 [21] was > 100 µM (inactive) and the IC50 [22] was > 100 µM (inactive).

For O=C(COc1ccccc1)NCC(=O)N/N=C/c1ccc(O)cc1O, the EC50 [4] was > 40 µM (inactive) and the IC50 [23] was 69.4 µM (active).

For CO/N=C/c1cn(-c2ccc(Cl)cc2)nn1, the AC50 [16] was 5.97 µM (active).
